Source: the supplement of paper PMC11451515

Assays:
Details in all cases: 48 h
SEM cells [1] = assay: cell viability relative to DMSO control; higher = less cytotoxic
How it was run: (§1)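 In 1536-well plates, 5 μl of leukemia cells were seeded per well: 500 cells/well for NOMO1 or SEM and 1000 cells/well for P12-Ichikawa. Each line had first been adapted for at least four passages in each medium. Library compounds in DMSO were pin-dosed at 11 threefold concentrations between 47 μM and 0.79 nM, and CellTiter-Glo One luminescence was read after 48 h at 37°C. Viability is a per-plate percentage relative to DMSO wells, with cell-free wells as background.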

NOMO1 [2] = assay: as above
How it was run: as §1

P12-Ichikawa [3] = assay: as above
How it was run: as §1

SEM cells [4] = assay: AUC of viability dose-response curve (% viability x log10 dose units); higher = less sensitive
How it was run: (§2)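 Leukemia cells adapted to each medium (500 or 1000 cells/well, 1536-well plates) were exposed to library compounds in DMSO for 48 h at 37°C at 11 threefold doses, 47 μM to 0.79 nM. Luminescence by CellTiter-Glo One was normalised per plate to DMSO and cell-free wells, then fitted with a four-parameter log-logistic curve on log10 dose. Curves above full viability were scaled and quality-control failures removed before area under the curve was integrated by trapezoidal rule.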

NOMO1 [5] = assay: as above
How it was run: as §2

P12-Ichikawa [6] = assay: as above
How it was run: as §2

CCCNC(=O)Nc1ccc(Oc2ncnc3cc(OC)c(OC)cc23)cc1Cl
cell viability [%]
Details	NOMO1 [2]	P12-Ichikawa [3]	SEM cells [1]
HPLM + 10% dialyzed FBS, 0.000781 µM	96.9	88.2	101
HPLM + 10% dialyzed FBS, 0.00234 µM	98	97.6	93.5
HPLM + 10% dialyzed FBS, 0.00702 µM	84.1	93.4	108
HPLM + 10% dialyzed FBS, 0.0211 µM	95.7	99.9	104
HPLM + 10% dialyzed FBS, 0.0632 µM	97.7	98.7	102
HPLM + 10% dialyzed FBS, 0.19 µM	87.9	97.3	101
HPLM + 10% dialyzed FBS, 0.569 µM	103	89	89.8
HPLM + 10% dialyzed FBS, 1.71 µM	81.8	76.1	98.1
HPLM + 10% dialyzed FBS, 5.12 µM	71	88.1	81
HPLM + 10% dialyzed FBS, 15.4 µM	71.6	95.6	80.4
HPLM + 10% dialyzed FBS, 46.1 µM	73.5	84.2	47.6
RPMI 5 mM glucose + 10% FBS, 0.000781 µM	89.6	93.9	118
RPMI 5 mM glucose + 10% FBS, 0.00234 µM	90.7	97.3	125
RPMI 5 mM glucose + 10% FBS, 0.00702 µM	84.7	97.2	125
RPMI 5 mM glucose + 10% FBS, 0.0211 µM	95.7	99.8	146
RPMI 5 mM glucose + 10% FBS, 0.0632 µM	86	94.7	117
RPMI 5 mM glucose + 10% FBS, 0.19 µM	90.6	96.3	104
RPMI 5 mM glucose + 10% FBS, 0.569 µM	81.9	87.6	103
RPMI 5 mM glucose + 10% FBS, 1.71 µM	90.3	82.8	98
RPMI 5 mM glucose + 10% FBS, 5.12 µM	87.4	85.2	88.2
RPMI 5 mM glucose + 10% FBS, 15.4 µM	82	81.3	92.1
RPMI 5 mM glucose + 10% FBS, 46.1 µM	77.6	80.4	57.7
RPMI 5 mM glucose + 10% dialyzed FBS, 0.000781 µM	97.8	98.7	94
RPMI 5 mM glucose + 10% dialyzed FBS, 0.00234 µM	92.4	99.5	109
RPMI 5 mM glucose + 10% dialyzed FBS, 0.00702 µM	101	94.8	104
RPMI 5 mM glucose + 10% dialyzed FBS, 0.0211 µM	96.7	99.7	113
RPMI 5 mM glucose + 10% dialyzed FBS, 0.0632 µM	90.9	92	90.7
RPMI 5 mM glucose + 10% dialyzed FBS, 0.19 µM	88.4	91.1	98.5
RPMI 5 mM glucose + 10% dialyzed FBS, 0.569 µM	86.7	91.4	92.8
RPMI 5 mM glucose + 10% dialyzed FBS, 1.71 µM	84.4	93.5	78.9
RPMI 5 mM glucose + 10% dialyzed FBS, 5.12 µM	84.7	86.8	73.3
RPMI 5 mM glucose + 10% dialyzed FBS, 15.4 µM	81.9	86.5	75.5
RPMI 5 mM glucose + 10% dialyzed FBS, 46.1 µM	70.5	75.7	41.7

AUC of viability dose-response curve
Details	NOMO1 [5]	P12-Ichikawa [6]	SEM cells [4]
HPLM + 10% dialyzed FBS	419	438	441
RPMI 5 mM glucose + 10% FBS	417	433	402
RPMI 5 mM glucose + 10% dialyzed FBS	424	440	413

CNCC[C@H](Oc1cccc2ccccc12)c1cccs1
cell viability [%]
Details	NOMO1 [2]	P12-Ichikawa [3]	SEM cells [1]
HPLM + 10% dialyzed FBS, 0.000781 µM	117	109	121
HPLM + 10% dialyzed FBS, 0.00234 µM	119	116	128
HPLM + 10% dialyzed FBS, 0.00702 µM	145	111	110
HPLM + 10% dialyzed FBS, 0.0211 µM	116	113	122
HPLM + 10% dialyzed FBS, 0.0632 µM	134	109	121
HPLM + 10% dialyzed FBS, 0.19 µM	117	96.2	130
HPLM + 10% dialyzed FBS, 0.569 µM	130	112	111
HPLM + 10% dialyzed FBS, 1.71 µM	123	108	99.4
HPLM + 10% dialyzed FBS, 5.12 µM	90.8	105	110
HPLM + 10% dialyzed FBS, 15.4 µM	41.5	95.8	84.2
HPLM + 10% dialyzed FBS, 46.1 µM	26.5	25.1	46.4
RPMI 5 mM glucose + 10% FBS, 0.000781 µM	108	126	124
RPMI 5 mM glucose + 10% FBS, 0.00234 µM	122	119	117
RPMI 5 mM glucose + 10% FBS, 0.00702 µM	122	124	119
RPMI 5 mM glucose + 10% FBS, 0.0211 µM	116	120	116
RPMI 5 mM glucose + 10% FBS, 0.0632 µM	120	121	110
RPMI 5 mM glucose + 10% FBS, 0.19 µM	112	119	136
RPMI 5 mM glucose + 10% FBS, 0.569 µM	124	112	111
RPMI 5 mM glucose + 10% FBS, 1.71 µM	110	118	107
RPMI 5 mM glucose + 10% FBS, 5.12 µM	116	119	86
RPMI 5 mM glucose + 10% FBS, 15.4 µM	44.5	111	96.2
RPMI 5 mM glucose + 10% FBS, 46.1 µM	26.3	81	24
RPMI 5 mM glucose + 10% dialyzed FBS, 0.000781 µM	105	107	–
RPMI 5 mM glucose + 10% dialyzed FBS, 0.00234 µM	127	115	–
RPMI 5 mM glucose + 10% dialyzed FBS, 0.00702 µM	116	112	–
RPMI 5 mM glucose + 10% dialyzed FBS, 0.0211 µM	119	119	–
RPMI 5 mM glucose + 10% dialyzed FBS, 0.0632 µM	137	105	–
RPMI 5 mM glucose + 10% dialyzed FBS, 0.19 µM	113	116	–
RPMI 5 mM glucose + 10% dialyzed FBS, 0.569 µM	112	111	–
RPMI 5 mM glucose + 10% dialyzed FBS, 1.71 µM	114	105	–
RPMI 5 mM glucose + 10% dialyzed FBS, 5.12 µM	121	105	–
RPMI 5 mM glucose + 10% dialyzed FBS, 15.4 µM	46.7	98.6	–
RPMI 5 mM glucose + 10% dialyzed FBS, 46.1 µM	27.4	58	–

AUC of viability dose-response curve
Details	NOMO1 [5]	P12-Ichikawa [6]	SEM cells [4]
HPLM + 10% dialyzed FBS	411	453	437
RPMI 5 mM glucose + 10% FBS	429	466	437
RPMI 5 mM glucose + 10% dialyzed FBS	430	459	412

O=P(O)(O)C(O)(Cn1ccnc1)P(=O)(O)O
cell viability [%]
Details	NOMO1 [2]	P12-Ichikawa [3]	SEM cells [1]
HPLM + 10% dialyzed FBS, 0.000781 µM	95.9	97.2	73.9
HPLM + 10% dialyzed FBS, 0.00234 µM	126	111	94
HPLM + 10% dialyzed FBS, 0.00702 µM	120	64	19.2
HPLM + 10% dialyzed FBS, 0.0211 µM	119	114	101
HPLM + 10% dialyzed FBS, 0.0632 µM	125	111	106
HPLM + 10% dialyzed FBS, 0.19 µM	130	122	101
HPLM + 10% dialyzed FBS, 0.569 µM	121	121	107
HPLM + 10% dialyzed FBS, 1.71 µM	139	119	106
HPLM + 10% dialyzed FBS, 5.12 µM	104	125	104
HPLM + 10% dialyzed FBS, 15.4 µM	111	112	109
HPLM + 10% dialyzed FBS, 46.1 µM	117	117	99.1
RPMI 5 mM glucose + 10% FBS, 0.000781 µM	93.5	109	95.8
RPMI 5 mM glucose + 10% FBS, 0.00234 µM	111	122	102
RPMI 5 mM glucose + 10% FBS, 0.00702 µM	108	70.9	10.2
RPMI 5 mM glucose + 10% FBS, 0.0211 µM	103	126	110
RPMI 5 mM glucose + 10% FBS, 0.0632 µM	105	131	120
RPMI 5 mM glucose + 10% FBS, 0.19 µM	109	134	116
RPMI 5 mM glucose + 10% FBS, 0.569 µM	101	136	123
RPMI 5 mM glucose + 10% FBS, 1.71 µM	104	137	110
RPMI 5 mM glucose + 10% FBS, 5.12 µM	110	137	123
RPMI 5 mM glucose + 10% FBS, 15.4 µM	104	136	120
RPMI 5 mM glucose + 10% FBS, 46.1 µM	101	125	114
RPMI 5 mM glucose + 10% dialyzed FBS, 0.000781 µM	101	101	100
RPMI 5 mM glucose + 10% dialyzed FBS, 0.00234 µM	127	108	89.7
RPMI 5 mM glucose + 10% dialyzed FBS, 0.00702 µM	114	67.8	22.5
RPMI 5 mM glucose + 10% dialyzed FBS, 0.0211 µM	130	111	92.7
RPMI 5 mM glucose + 10% dialyzed FBS, 0.0632 µM	112	114	114
RPMI 5 mM glucose + 10% dialyzed FBS, 0.19 µM	133	120	104
RPMI 5 mM glucose + 10% dialyzed FBS, 0.569 µM	118	116	102
RPMI 5 mM glucose + 10% dialyzed FBS, 1.71 µM	124	114	117
RPMI 5 mM glucose + 10% dialyzed FBS, 5.12 µM	122	112	120
RPMI 5 mM glucose + 10% dialyzed FBS, 15.4 µM	117	122	116
RPMI 5 mM glucose + 10% dialyzed FBS, 46.1 µM	104	118	121

AUC of viability dose-response curve
Details	NOMO1 [5]	P12-Ichikawa [6]	SEM cells [4]
HPLM + 10% dialyzed FBS	471	448	427
RPMI 5 mM glucose + 10% FBS	474	445	425
RPMI 5 mM glucose + 10% dialyzed FBS	477	450	424
